Values joined by “and” are separate entries in the source; they are usually repeats but may differ in a detail not shown here. Equal entries are not always repeated.
Columns and labels:
[1] = Target engagement: GUSi in colon tissue and TCS to TCS-G ratio in colon digesta by LC-MS/MS; assay type: in vivo, mice; details: for GUSi in colon tissue: GUSi-treated mice, individual mice
Description: (§1) After another 3 weeks, the mice were stimulated with 2% DSS (molecular weight = 36–50 KDa, MP Biomedicals, Solon, OH) in drinking water for 6 days to induce colitis. At end of the experiment, the mice were sacrificed for analysis.
Fig. S15. Orally dosed GUSi reaches the mouse colon and suppresses conversion of TCS -G to TCS. a.
mice were stimulated with DSS to induce colitis. The final GUSi was dosed on day 25 and mice were sacrificed
for analysis on day 27. b. GUSi is detected in the mouse colon 2 days after the final dose of the inhibitor. c.
GUSi treatment reduces the ratio of TCS to TCS-G in colon digesta.
per group. NA: no TCS or TCS-G detected.

DSS-induced colitis = DSS-induced colitis in mice: TCS with or without GUSi (colon length, histology, FACS, qRT-PCR); assay type: in vivo
Excerpt: as §1
Total RNA of colon tissues and MC38 cells were isolated using Trizol reagent (Ambion) according to the manufacturer’s instruction. RNA was reverse transcribed into cDNA using the High Capacity cDNA Reverse Transcription kit (Applied Biosystem) according to the manufacturer’s instructions. In all, 20 μL PCR reactions were prepared using the Maxima SYBR Green Master Mix (Thermo Fisher Scientific), and qPCR was carried out using a DNA Engine Opticon System (Bio-Rad Laboratories). Mouse-specific primer sequences (Thermo Fisher Scientific) used to detect inflammatory biomarkers are listed in Supplementary Table S6. Gapdh expression was used as an internal control.
Distal colon tissues were dissected, washed with cold PBS, and digested with Hank’s balanced salt solution (HBSS, Lonza) supplemented with 1 mM dithiothreitol (DTT) and 5 mM EDTA at 4 °C (colon […] cells). The released cells were stained with FITC-conjugated anti-mouse CD45 (BioLegend, Clone: 30-F11), PerCP/Cy5.5-conjugated anti-mouse F4/80 (BioLegend, Clone: BM8), and PE/Cy7-conjugated anti-mouse Ly-6G/Ly-6C (GR-1) (BioLegend, Clone: RB6-8C5) with a 1:100 diluted solution. Cells were stained with Zombie Violet^TM dye (Zombie Violet^TM Fixable Viability Kit; BioLegend) according to the manufacturer’s instructions to exclude dead cells. Gating and cell identification strategies are as follows: briefly, cell doublets and clumps were eliminated using FSC-A gating and debris was eliminated using FSC-A vs SSC-A. Dead cells were gated out using Zombie Violet™ dye. Flow cytometry data were acquired on a BD LSR Fortessa^TMcell analyzer (Becton Dickinson, Franklin Lakes, NJ) and analyzed using FlowJo software (FlowJo, LLC). Gating strategies used for the identification of major immune cell populations are shown in Supplementary Fig. S17.
The dissected colon tissues were fixed in 10% neutral buffered formalin (Thermo Fisher Scientific) for 48 h. After dehydration, the tissues were embedded in paraffin and sliced ([…]) by Rotary Microtome (Thermo Fisher Scientific). The slices were dewaxed in serial xylene and rehydrated through ethanol solutions, stained with hematoxylin and eosin (Sigma-Aldrich), and images were obtained under 200× magnification (BZ-X700 microscope, Keyence, Itasca, IL). The histologic scores were evaluated by a blinded observer according to the following measures: crypt architecture, degree of inflammatory cell infiltration, muscle thickening, goblet cell depletion, and crypt abscess. The histologic damage score is the sum of each individual score.

[2] = DSS colitis mice, FACS, individual animals, Fig.5d
[3] = DSS colitis mice, gene expression, individual animals, Fig.5e

For `C1CCc2c(c(N3CCOCC3)nc3sc4c(N5CCNCC5)nnnc4c23)C1` [GUSi, UNC10201652], the “presence in colon tissues” value ([1]; 2 days after the final oral administration of GUSi (1 mg/kg)) was “detected”, the “ratio of TCS to TCS-G in colon digesta” value ([1]; GUSi 1 mg/kg oral gavage, TCS via diet) was “significantly reduced” and the “GUSi in colon tissue” value ([1]; TCS) was 4.6 pmol/g and 5.3 pmol/g and 18.7 pmol/g and 4.5 pmol/g and 2.1 pmol/g and 0.7 pmol/g and 6.2 pmol/g and 5.7 pmol/g and 12 pmol/g and 5.4 pmol/g. The “GUSi in colon tissue” value ([1]; Veh (no TCS)) was 9 pmol/g and 9.3 pmol/g and 5.9 pmol/g and 9.8 pmol/g and 11.9 pmol/g and 9.9 pmol/g and 14 pmol/g and 8.6 pmol/g, the “colitis-enhancing effects of TCS with co-administration of GUSi” value (DSS-induced colitis; 1 mg/kg GUSi via oral gavage, 80 ppm TCS via diet, DSS-induced colitis, all measures) was “eliminated” and the “cd45+(%)” value (DSS-induced colitis; [2]) was 3.37% and 1.44% and 2.8% and 3.35% and 3.49% and 6.62% and 4.63% and 3.22%. The “f4/80+ (%)” value (DSS-induced colitis; [2]) was 5.88% and 5.56% and 2.33% and 7.14% and 0% and 1.72%, the “gr-1+ (%)” value (DSS-induced colitis; [2]) was 0% and 2.94% and 5.56% and 1.43% and 2.13% and the Il-6 (DSS-induced colitis; [3]) was 0.5774 and 0.763 and 0.8366 and 0.5822 and 0.577 and 0.6095. The Il-17 (DSS-induced colitis; [3]) was 0.5948 and 0.2298 and 0.792 and 0.6818 and 0.4596 and 0.7005, the Il-23 (DSS-induced colitis; [3]) was 0.7347 and 0.9268 and 1.245 and 0.9397 and 0.6326 and 1.199 and the Mcp1 (DSS-induced colitis; [3]) was 0.841 and 0.7995 and 1.048 and 0.7621 and 1.517 and 1.4734 and 0.8163. For the same molecule, the Tnf-α (DSS-induced colitis; [3]) was 1.652 and 0.2802 and 0.2939 and 0.2088 and 0.6209 and 0.7192, the HE (DSS-induced colitis; DSS colitis mice, histology score, individual animals, Fig.5c) was 4 and 3 and 6 and the “colon length (cm)” value (DSS-induced colitis; DSS colitis mice, individual animals, Fig.5b) was 6.9 cm and 7.5 cm and 7.1 cm and 7.2 cm and 6.7 cm.

Reference: publication PMC8748916, “Microbial enzymes induce colitis by reactivating triclosan in the mouse gastrointestinal tract” (Nature Communications, 2022)
